Like-named read-outs stand apart in the source and are kept apart here.
Legend:
[1] = Phase 1 open-label parallel-group PK study of IV vasopressin in healthy volunteers by LNPEP rs4869317 genotype; assay type: in vivo, human; details: for Css (Max) / Css (Min) / level at 1 h / clearance: plasma; for level at 1 h / clearance: both sexes, human, iv; for level at 1 h: 200 uU/kg/min; for clearance: 200 μU/kg/min
Text: The primary objective of this study was to evaluate differences in plasma clearance of vasopressin following IV administration in subjects with the TT genotype (rs4869317) versus those with the AA/AT genotype of the LNPEP gene in healthy volunteers. The secondary objective of the study was to assess the safety and tolerability of vasopressin in healthy volunteers. This was a Phase 1, open-label, 2-arm, parallel group, PK study in healthy volunteers. Approximately 48 healthy male and female subjects were enrolled at a single center in the United States to achieve at least 19 evaluable subjects per genotype group. The study comprised a screening period, a treatment period, and a follow-up phone call.
Subjects were screened for general good health over a 28-day period. Screening evaluations included medical history, physical examination, vital sign measurement, 12-lead electrocardiogram (ECG), and clinical laboratory testing (hematology, serum chemistry, and urinalysis). In addition, subjects were advised of the diet and medication restrictions and agreed to conform to them.
As a part of screening, the LNPEP genotype (TT or AA/AT) of the subjects was determined. The target enrollment was 24 subjects with the SNP rs4869317 (TT genotype). As the control group, 24 subjects with the AA/AT genotype were approximately matched with respect to age (±5 years), sex, race, BMI (±5%), and creatinine clearance (±10 mL/min). An effort was made to enroll at least 4 female subjects in each genotype group. Subjects were matched during screening and confirmed at check-in on Day-2. Subjects were enrolled for participation in 2 genotype groups of a minimum size of 24 subjects per genotype group in order to meet a minimum of 19 evaluable subjects per genotype group.
A dose of 200 μU/kg/min vasopressin (VASOSTRICT®) was used for this healthy volunteer PK study. The dose roughly corresponds to 0.012 units/minute for a 60 kg individual. This value is approximately equal to the starting dose of 0.01 units/minute in the VASOSTRICT® prescribing information. Clearance in healthy volunteers (15 mL/min/kg) at the vasopressin dose of 200 μU/kg/minute planned for study is within this range. Blood samples for PK analysis were drawn at baseline and 5, 15, 30, and 60 minutes following infusion. If TT genotyped subjects cleared vasopressin at a faster rate, patients of this genotype may benefit from an altered dosing regimen.
Subjects who meet all inclusion and none of the exclusion criteria received vasopressin continuous IV infusion at a constant rate of 200 μU/kg/min for 60 minutes on Day 1. To minimize orthostatic hypotension, subjects remained supine throughout the duration of the infusion. Eligible subjects were admitted to the clinical unit on Day-2, i.e., two days prior to dosing, to ensure adequate hydration and to standardize sodium intake. Vasopressin levels were also be determined during this period. Subjects remained confined until completion of all study procedures. While in the clinical unit, subjects were fed a standard diet with a dietary sodium intake limited to 2300 mg per day and drank no less than 1.0 to 1.5 L of water per day in addition to usual consumed beverages.
Study drug was administered on the morning of Day 1 under standard fasting conditions (minimum of 10-hour overnight fast). Passive telemetry monitoring occurred during the infusion. One hour prior to dosing, each subject was given an oral water load of 20 mL/kg to be consumed within 30 minutes. Thereafter, a second 20 mL/kg volume of water was made available. Subjects continued to drink water at regular intervals through the next 90 minutes (end of the infusion). Subjects were asked to pass urine spontaneously within 15 minutes prior to the start of infusion. The fasting restriction continued until the end of the infusion.
Subjects remained in the clinical unit after the end of the infusion and were discharged the following day (Day 2). […]

[2] = cited from earlier work
[3] = cited from earlier work; remark: listed apart in the source
[4] = Table 1 overview of parameters, infusion rate 0.03 units/minute, TT vs AA/AT genotype patients; assay type: in vivo, human; details: for clearance / level at time molar: human, in vivo, 0.03 units/minute; for clearance: intravenous; for level at time molar: iv
[5] = septic shock patients, VASST trial, Nakada et al.; cited from earlier work
[6] = AA/AT (n=12) vs TT (n=12), 60 minute continuous IV infusion 200 μU/kg/min
[7] = AA/AT genotype healthy volunteers (12 subjects), 200 μU/kg/min continuous IV infusion for 60 minutes
[8] = TT compared with AA/AT genotype
[9] = TT genotype healthy volunteers (12 subjects), 200 μU/kg/min continuous IV infusion for 60 minutes

In the case of NC(=O)CC[C@@H]1NC(=O)[C@H](Cc2ccccc2)NC(=O)[C@H](Cc2ccc(O)cc2)NC(=O)[C@@H](N)CSSC[C@@H](C(=O)N2CCC[C@H]2C(=O)N[C@@H](CCCN=C(N)N)C(=O)NCC(N)=O)NC(=O)[C@H](CC(N)=O)NC1=O [vasopressin, Cyclo (1-6) L-Cysteinyl-L-Tyrosyl-L-Phenylalanyl-L-Glutaminyl-L-Asparaginyl-L-Cysteinyl-L-Prolyl-L-Arginyl-L-Glycinamide], the “higher plasma clearance in AA/AT than TT rs4869317 genotype” value [1, 6] is reported as 25.5%, the “lower steady state concentration in AA/AT than TT rs4869317 genotype” value [1, 6] is reported as 21.42% and the “Css (Max)” value [1, 7] is reported as 0.0414 ng/mL. The “Css (Min)” value [1, 7] was 0.0101 ng/mL, the “vasopressin clearance, TT vs AA/AT genotyped patients (in words)” value [1, 8] was “lower vasopressin clearance” and the “vasopressin plasma concentrations, TT vs AA/AT genotyped patients (in words)” value [1, 8] was “higher vasopressin plasma concentrations”. The “Css (Max)” value [1, 9] was 0.0861 ng/mL, the “Css (Min)” value [1, 9] was 0.0171 ng/mL and the “mean clearance in TT patients less than that of AA/AT patients” value ([1]; TT vs AA/AT genotype) was “about 20%”. For the same molecule, the “mean steady state plasma concentration in TT patients higher than that of AA/AT patients” value ([1]; TT vs AA/AT genotype) was “about 27.4%”, the level at 1 h ([1]; AA/AT genotype healthy volunteers (12 subjects), 200 μU/kg/min continuous IV infusion for 60 minutes, read-out: Css (Mean), concentration at steady state) was 0.025 ng/mL and the level at 1 h ([1]; AA/AT genotype healthy volunteers (12 subjects), 200 μU/kg/min continuous IV infusion for 60 minutes, read-out: Css (Median)) was 0.0251 ng/mL. For the same molecule, the level at 1 h ([1]; AA/AT rs4869317 genotype (n = 12), 60 minute continuous IV infusion 200 μU/kg/min, read-out: Steady State Concentration at 60 minutes (Css)) was 0.025 ng/mL, the level at 1 h ([1]; TT genotype healthy volunteers (12 subjects), 200 μU/kg/min continuous IV infusion for 60 minutes, read-out: Css (Mean), concentration at steady state) was 0.0319 ng/mL and the level at 1 h ([1]; TT genotype healthy volunteers (12 subjects), 200 μU/kg/min continuous IV infusion for 60 minutes, read-out: Css (Median)) was 0.0271 ng/mL. The level at 1 h ([1]; TT rs4869317 genotype (n = 12), 60 minute continuous IV infusion 200 μU/kg/min, read-out: Steady State Concentration at 60 minutes (Css)) was 0.0319 ng/mL, the clearance ([1]; AA/AT genotype healthy volunteers (12 subjects), 200 μU/kg/min continuous IV infusion for 60 minutes, read-out: CL (Max)) was 37.3 mL/min/kg and the clearance ([1]; AA/AT genotype healthy volunteers (12 subjects), 200 μU/kg/min continuous IV infusion for 60 minutes, read-out: CL (Mean)) was 17.4 mL/min/kg. The clearance ([1]; AA/AT genotype healthy volunteers (12 subjects), 200 μU/kg/min continuous IV infusion for 60 minutes, read-out: CL (Median)) was 15 mL/min/kg, the clearance ([1]; AA/AT genotype healthy volunteers (12 subjects), 200 μU/kg/min continuous IV infusion for 60 minutes, read-out: CL (Min)) was 9.1 mL/min/kg and the clearance ([1]; AA/AT rs4869317 genotype (n = 12), 60 minute continuous IV infusion 200 μU/kg/min, read-out: Total Plasma Clearance (CL) Value) was 17.4 mL/min/kg. For the same molecule, the clearance ([1]; TT genotype healthy volunteers (12 subjects), 200 μU/kg/min continuous IV infusion for 60 minutes, read-out: CL (Max)) was 22 mL/min/kg, the clearance ([1]; TT genotype healthy volunteers (12 subjects), 200 μU/kg/min continuous IV infusion for 60 minutes, read-out: CL (Mean)) was 13.8 mL/min/kg and the clearance ([1]; TT genotype healthy volunteers (12 subjects), 200 μU/kg/min continuous IV infusion for 60 minutes, read-out: CL (Median)) was 14 mL/min/kg. For the same molecule, the clearance ([1]; TT genotype healthy volunteers (12 subjects), 200 μU/kg/min continuous IV infusion for 60 minutes, read-out: CL (Min)) was 4.4 mL/min/kg, the clearance ([1]; TT rs4869317 genotype (n = 12), 60 minute continuous IV infusion 200 μU/kg/min, read-out: Total Plasma Clearance (CL) Value) was 13.8 mL/min/kg and the “rates of serious adverse events in AA genotype patients (in words)” value ([2]; septic shock patients who received vasopressin, Anantasit et al.) was “significantly higher rates of serious adverse events”. For the same molecule, the “AVP blood levels, TT/TA vs AA genotype (in words)” value ([2]; septic shock patients, Anantasit et al. FIG. 2) was “statistically significant higher AVP blood levels”, the “dose excreted unchanged in urine” value ([3]; VASOSTRICT prescribing information 2019) was “about 6%” and the apparent half-life ([3]; VASOSTRICT prescribing information, at these levels) was less than 10 min. For the same molecule, the “Clearance in healthy volunteers” value ([3]; vasopressin dose of 200 μU/kg/minute) was 15 mL/min/kg, the “% change in the pharmacokinetic parameters in AA/AT genotype patients vs. TT genotype patients” value [4] was less than 33% and the “% increase in clearance in AA/AT genotype patients vs. TT genotype patients” value [4] was no less than 46%. The clearance ([4]; read-out: Clearance in AA/AT genotype patients) was 28.7 mL/min/kg, the clearance ([4]; read-out: Clearance in TT genotype patients) was 19.7 mL/min/kg and the level at time molar ([4]; read-out: Concentration at steady state in AA/AT genotype patients) was 3.17 pM. The level at time molar ([4]; read-out: Concentration at steady state in TT genotype patients) was 4.7 pM and the “vasopressin clearance, TT vs AA or AT genotyped patients (in words)” value [5] was “increase in vasopressin clearance”.

Source: patent publication US10920278B1, “Method to treat hypotension using vasopressin in certain genotypes” (Par Pharmaceutical, Inc., priority 2020, dated 2021)
